Experiments:
[1] = tested on: perceived human salt intensity; assay: inventors' test of perceived human salt intensity; assay type: in vivo
Text: Unlike other mammals, amiloride has been reported to only slightly reduce the intensity of sodium chloride taste, i.e., by about 15-20% when used at concentrations that specifically modulate ENaC function (Halpern, B. P. (1998) Neuroscience and Behavioral Reviews. 23: 5-47). […] Thus, additional non-ENaC genes are likely involved in human salt taste.

[2] = tested on: sodium chloride taste; details: concentrations that specifically modulate ENaC function; cited from earlier work

Row | Compound | effect on perceived human salt intensity ([1]; tested at 300-fold above IC50 for alpha beta gamma ENaC (10-fold over IC50 for delta beta gamma ENaC)) | reduction of the intensity of sodium chloride taste [2] | effect on perceived human salt intensity ([1]; tested at 3000-fold above IC50 for alpha beta gamma ENaC (100-fold over IC50 for delta beta gamma ENaC), levels printed for benzamil)
1 | N=C(N)NC(=O)c1nc(Cl)c(N)nc1N [amiloride] | did not elicit a significant effect | 15-20% | 
2 | NC(=Nc1ccccc1)NC(=O)c1nc(Cl)c(N)nc1N [phenamil] |  |  | did not elicit a significant effect

Source: patent publication US20080261824A1, “Rationale, methods, and assays for identifying novel taste cell genes and salty taste receptor targets and assays using these identified genes or gene products” (Senomyx, Inc., priority 2006, published 2008)
